# Measured values from patent publication US7026135B2, “Biotin-peg-substrate for a lipase assay” (Amersham Biosciences UK Limited, priority 2000, dated 2006).
# Tests used:
# Type in all cases: biochemical
# lipase [1] = assay: lipase assay, 384-well LEADseeker format (YOx LEADseeker beads); conditions: 30 nM lipase, room temperature, 60 minutes, read-out: IC50 inhibition of lipase activity
# Method: (§1) 384-well SPA and LEADseeker formats. 180 nM lipase substrate was added to streptavidin coated YSi beads at 10 mg/ml and 10% (v/v) Triton™ X-100 in the ratio of 2:3:1. Assays contained […] substrate precoated streptavidin YSi SPA beads or streptavidin yttrium oxide (YOx) LEADseeker beads (Amersham Pharmacia Biotech) (24 nM lipase substrate, 50 μg beads, 0.67% (v/v) Triton X-100), 30 nM lipase and assay buffer in a volume of 25 μl. In ‘no enzyme’ controls, approximately 6000 SPA cpm and 600 IOD's (Integrated Optical Density) were obtained. After incubation for 60 minutes at room temperature with agitation, assays were stopped by the addition of 25 μl 0.1M sodium citrate/citric acid, pH 4.0 and counted on either on a TopCount microplate scintillation counter (Packard Instruments Co., Meriden, Conn., USA) or imaged on LEADseeker (Amersham Pharmacia Biotech).
# (§2) Miniaturization of the lipase assay to 384-well format using SPA and LEADseeker. Using a reduced assay volume an enzyme titration was performed with YSi SPA beads and YOx LEADseeker beads (FIG. 5). Different profiles were obtained using the two assay formats and this may be a result of how the substrate is presented on the surface of the two bead types.
# (§3) 30 nM lipase was used and assays were incubated at room temperature for 60 minutes.
# lipase [2] = assay: lipase assay, 384-well SPA format (YSi SPA beads); conditions: 30 nM lipase, room temperature, 60 minutes, read-out: IC50 inhibition of lipase activity
# Method: as §1, §2, §3
# lipase [3] = assay: lipase assay, 96-well SPA format, 'on bead'; conditions: YSi beads, 5 nM lipase, room temperature, 60 minutes, read-out: IC50 inhibition of lipase activity
# Method: 96-well SPA format. Using an ‘on bead’ assay format, 180 nM lipase substrate (i.e. HSL substrate prepared by the method described in Example 1) was added to streptavidin coated yttrium silicate (YSi) beads (Amersham Pharmacia Biotech) at 5 mg/ml and 10% (v/v) Triton™ X-100 in the ratio of 1:3:2. Triton X-100 was added to prevent non-specific binding of the tritiated product to beads. Assays contained 20 μl substrate precoated SPA beads (6 nM lipase substrate, 50 μg beads, 0.67% (v/v) Triton X-100), 5 nM lipase and assay buffer (50 mM Hepes, pH 7.5, 1 mM dithioerythritol (DTE) and 0.001% (v/v) C13E12) in a volume of 100 μl. In ‘no enzyme’ controls, approximately 15000 SPA cpm were obtained. After incubation for 60 minutes at room temperature with agitation, assays were stopped by the addition of 100 μl 0.1M sodium citrate/citric acid, pH 4.0 and counted on a TopCount™ microplate scintillation counter (Packard Instruments Co., Meriden, Conn., USA).
# Development of a lipase assay using a 96-well SPA assay format. Enzyme titrations were set up using ‘on’ and ‘off’ bead assay formats. In the ‘off’ bead format, the lipase substrate was not precoated onto SPA beads; instead the beads were added at the same time as the stop solution. […] It is thought that the binding of the substrate to the bead surface produced an artificial membrane environment necessary for optimal enzyme activity (FIG. 2). […]
compound,measurement,setting,value
CC[C@@H](C)[C@@H](O)[C@H](C)C(=O)[C@H](C)/C=C(\C)C[C@H](C)[C@@H]1OC(=O)[C@H]1CC [Ebelactone B],IC50,lipase [1],18.2 µM
same,IC50,lipase [2],32.3 µM
same,IC50,lipase [3],27.5 µM
